# Results: patent publication US20250127906A1, “SMALL-MOLECULE DEGRADERS OF CDK8 AND CDK19” (University of South Carolina, priority 2021, published 2025)
# Marks after values point to notes of the source that are not given here.
# Target: CDK8 (Homo sapiens, UniProt P49336)
# Assay: CDK8 degradation in HEK-293 cells (Western blot, normalized by GAPDH)
# Assay type: cell-based
# Set-up: endogenous in cells; host or cells: HEK-293
# Details: HEK-293 cells, 24 hours, tested at 0.3 μM (marked *)
# Method: Table 1 presents the structures of 35 different chimeras that have been synthesized, together with their effects (at 1 μM or 0.3 μM concentrations) on CDK8 degradation in HEK-293 cells. The synthesis schemes of all the compounds are described below. CDK8 degradation was measured by Western blot analysis of RIPA lysates of HEK-293cells treated with or without the test compound for 24 hours, using antibodies against CDK8 (Santa Cruz sc-1521) and housekeeping protein GAPDH (Santa Cruz sc-32233) (loading control) Protein bands on immunoblotted PVDF membranes were visualized with Western Lighting Plus ECL detection reagent (Perkin Elmer, Waltham, MA, USA) using ChemiDoc Touch™ (Bio-Rad). Image processing and densitometry analysis were performed using ImageLab software (Bio-Rad) to quantify the CDK8 protein levels (normalized by GAPDH) and evaluate the effects of compound treatment.
# FIGS. 2F and 2G show the effects of different concentrations of potent Senexin C- and BI-1347-based PROTACs on CDK8 and CDK19 degradation in HEK-293cells. Based on these assays, we calculated DC50 values that correspond to PROTAC concentrations inducing degradation of CDK8 and CDK19 to the half of protein level in untreated cells. The corresponding CDK8 DC50 values were 46 nM for IA7843, 6.6 nM for IA7882 and 2.8 nM for IA7886, and CDK19 DC50 values were 1 μM for IA7843, 25 nM for IA7882 and 10 nM for IA7886.
# Chain of CDK8 (P49336 whole entry): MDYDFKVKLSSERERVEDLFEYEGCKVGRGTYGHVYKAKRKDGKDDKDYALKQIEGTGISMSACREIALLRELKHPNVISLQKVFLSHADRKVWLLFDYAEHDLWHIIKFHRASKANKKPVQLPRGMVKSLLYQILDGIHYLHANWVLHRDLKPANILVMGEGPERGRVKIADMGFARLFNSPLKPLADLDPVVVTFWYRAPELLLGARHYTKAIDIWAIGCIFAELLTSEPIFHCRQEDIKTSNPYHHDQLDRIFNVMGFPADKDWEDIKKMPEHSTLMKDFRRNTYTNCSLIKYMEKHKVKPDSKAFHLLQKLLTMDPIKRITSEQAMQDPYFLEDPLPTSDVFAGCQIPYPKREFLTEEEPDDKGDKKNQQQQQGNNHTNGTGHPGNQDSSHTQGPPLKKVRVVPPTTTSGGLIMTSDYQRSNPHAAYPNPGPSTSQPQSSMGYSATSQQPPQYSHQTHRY
# Chain of CDK8 (P24863 whole entry partner): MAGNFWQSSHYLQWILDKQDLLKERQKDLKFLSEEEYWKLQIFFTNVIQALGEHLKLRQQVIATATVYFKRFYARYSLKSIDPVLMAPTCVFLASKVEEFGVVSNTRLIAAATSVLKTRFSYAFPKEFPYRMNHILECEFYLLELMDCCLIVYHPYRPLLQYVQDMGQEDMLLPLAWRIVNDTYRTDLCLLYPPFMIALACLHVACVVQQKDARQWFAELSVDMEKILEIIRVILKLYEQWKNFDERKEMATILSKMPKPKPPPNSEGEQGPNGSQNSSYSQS
row,% CDK8 remaining [%*],Structure (SMILES)
1,70,"O=C1CCC(N2C(=O)c3cccc(NCCCCC(=O)N4CCN(C(=O)Cn5cc(-c6ccc(-c7cncc8ccccc78)cc6)cn5)CC4)c3C2=O)C(=O)N1 (stereo not shown) [IA7895, 2-(2,6-dioxopiperidin-3-yl)-4-((5-(4-(2-(4-(4-(isoquinolin-4-yl)phenyl)-1H-pyrazol-1-yl)acetyl)piperazin-1-yl)-5-oxopentyl)amino) isoindoline-1,3-dione]"
2,51,"O=C1CCC(N2C(=O)c3cccc(NCCOCCOCCOCCC(=O)N4CCN(C(=O)Cn5cc(-c6ccc(-c7cncc8ccccc78)cc6)cn5)CC4)c3C2=O)C(=O)N1 (stereo not shown) [IA7894, 2-(2,6-dioxopiperidin-3-yl)-4-((2-(2-(2-(3-(4-(2-(4-(4-(isoquinolin-4-yl)phenyl)-1H-pyrazol-1-yl)acetyl)piperazin-1-yl)-3-oxopropoxy)ethoxy)ethoxy)ethyl)amino) isoindoline-1,3-dione]"
3,9,"CC(C)(C)C(=O)OCN1C(=O)CCC(N2C(=O)c3cccc(NCCCC(=O)NCCCCCCCCCCC(=O)N4CCN(C(=O)Cn5cc(-c6ccc(-c7cncc8ccccc78)cc6)cn5)CC4)c3C2=O)C1=O (stereo not shown) [IA7893, (3-(4-((4-((11-(4-(2-(4-(4-(isoquinolin-4-yl)phenyl)-1H-pyrazol-1-yl)acetyl)piperazin-1-yl)-11-oxoundecyl)amino)-4-oxobutyl)amino)-1,3-dioxoisoindolin-2-yl)-2,6-dioxopiperidin-1-yl)methyl pivalate]"

# Same assay, conditions: HEK-293 cells, 24 hours, tested at 1 μM
row,% CDK8 remaining [%],Structure (SMILES)
1,21,"N#Cc1ccc2nccc(NCCc3ccc4cc(C(=O)N5CCN(C(=O)CCOCCOCCOCCNc6cccc7c6C(=O)N(C6CCC(=O)NC6=O)C7=O)CC5)ccc4c3)c2c1 (stereo not shown) [HV5957, 4-[2-[6-[4-[3-[2-[2-[2-[[2-(2,6-dioxo-3-piperidyl)-1,3-dioxo-isoindolin-4-yl]amino]ethoxy]ethoxy]ethoxy]propanoyl]piperazine-1-carbonyl]-2-naphthyl]ethylamino]quinoline-6-carbonitrile]"
2,100,"Cc1ncsc1-c1ccc(CNC(=O)[C@@H]2C[C@@H](O)CN2C(=O)[C@@H](NC(=O)CCOCCOCCOCCOCCC(=O)N2CCN(C(=O)c3ccc4cc(CCNc5ccnc6ccc(C#N)cc56)ccc4c3)CC2)C(C)(C)C)cc1 [IA7807, (2S,4R)-1-((S)-2-(tert-butyl)-19-(4-(6-(2-((6-cyanoquinolin-4-yl)amino)ethyl)-2-naphthoyl)piperazin-1-yl)-4,19-dioxo-7,10,13,16-tetraoxa-3-azanonadecanoyl)-4-hydroxy-N-(4-(4-methylthiazol-5-yl)benzyl) pyrrolidine-2-carboxamide]"
3,36,"CN(CCCNC(=O)CCOCCOCCOCCOCCNc1cccc2c1C(=O)N(C1CCC(=O)NC1=O)C2=O)C(=O)c1ccc2cc(CCNc3ccnc4ccc(C#N)cc34)ccc2c1 (stereo not shown) [HP8581, 6-[2-[(6-cyano-4-quinolyl)amino]ethyl]-N-[3-[3-[2-[2-[2-[2-[[2-(2,6-dioxo-3-piperidyl)-1,3-dioxo-isoindolin-4-yl]amino]ethoxy]ethoxy]ethoxy]ethoxy]propanoylamino]propyl]-N-methyl-naphthalene-2-carboxamide]"
4,45,"N#Cc1ccc2nccc(NCCc3ccc4cc(C(=O)N5CCN(C(=O)CCCCCCCCNC(=O)CCOCCNc6cccc7c6C(=O)N(C6CCC(=O)NC6=O)C7=O)CC5)ccc4c3)c2c1 (stereo not shown) [IA7835, N-[9-[4-[6-[2-[(6-cyano-4-quinolyl)amino]ethyl]naphthalene-2-carbonyl]piperazin-1-yl]-9-oxo-nonyl]-3-[2-[[2-(2,6-dioxo-3-piperidyl)-1,3-dioxo-isoindolin-4-yl]amino]ethoxy]propanamide]"
5,66,"N#Cc1ccc2nccc(NCCc3ccc4cc(C(=O)N5CCN(C(=O)CCNC(=O)CCOCCOCCOCCNc6cccc7c6C(=O)N(C6CCC(=O)NC6=O)C7=O)CC5)ccc4c3)c2c1 (stereo not shown) [IA7819, N-[3-[4-[6-[2-[(6-cyano-4-quinolyl)amino]ethyl]naphthalene-2-carbonyl]piperazin-1-yl]-3-oxo-propyl]-3-[2-[2-[2-[[2-(2,6-dioxo-3-piperidyl)-1,3-dioxo-isoindolin-4-yl]amino]ethoxy]ethoxy]ethoxy]propanamide]"

# The remaining lines, values behind:
row,Structure (SMILES),% CDK8 remaining [%]
1,"N#Cc1ccc2nccc(NCCc3ccc4cc(C(=O)N5CCN(C(=O)CCCCCCCCNC(=O)CCCCCNc6cccc7c6C(=O)N(C6CCC(=O)NC6=O)C7=O)CC5)ccc4c3)c2c1 (stereo not shown) [IA7860, N-[9-[4-[6-[2-[(6-cyano-4-quinolyl)amino]ethyl]naphthalene-2-carbonyl]piperazin-1-yl]-9-oxo-nonyl]-6-[[2-(2,6-dioxo-3-piperidyl)-1,3-dioxo-isoindolin-4-yl]amino]hexanamide]",95
2,"CN(CCCNC(=O)CCOCCOCCNc1cccc2c1C(=O)N(C1CCC(=O)NC1=O)C2=O)C(=O)c1ccc(N2CCCN(c3ccnc4sc(C(N)=O)c(N)c34)CC2)cc1 (stereo not shown) [HP8578, 3-amino-4-[4-[4-[3-[3-[2-[2-[[2-(2,6-dioxo-3-piperidyl)-1,3-dioxo-isoindolin-4-yl]amino]ethoxy]ethoxy]propanoylamino]propyl-methyl-carbamoyl]phenyl]-1,4-diazepan-1-yl]thieno[2,3-b]pyridine-2-carboxamide]",82
3,"N#Cc1ccc2nccc(NCCc3ccc4cc(C(=O)N5CCN(C(=O)CCCCCCCCCNC(=O)CCCCNc6cccc7c6C(=O)N(C6CCC(=O)NC6=O)C7=O)CC5)ccc4c3)c2c1 (stereo not shown) [IA7861, N-[10-[4-[6-[2-[(6-cyano-4-quinolyl)amino]ethyl]naphthalene-2-carbonyl]piperazin-1-yl]-10-oxo-decyl]-5-[[2-(2,6-dioxo-3-piperidyl)-1,3-dioxo-isoindolin-4-yl]amino]pentanamide]",19
4,"O=C(Cn1cc(-c2ccc(-c3cncc4ccccc34)cc2)cn1)NCCOCCOCCOCCOCCNc1cccc2c1C(=O)N(C1CCC(=O)NC1=O)C2=O (stereo not shown) [IA7891, N-[2-[2-[2-[2-[2-[[2-(2,6-dioxo-3-piperidyl)-1,3-dioxo-isoindolin-4-yl]amino]ethoxy]ethoxy]ethoxy]ethoxy]ethyl]-2-[4-[4-(4-isoquinolyl)phenyl]pyrazol-1-yl]acetamide]",100
5,"N#Cc1ccc2nccc(NCCc3ccc4cc(C(=O)N5CCN(C(=O)CCCCCCCCNC(=O)CCCCNc6cccc7c6C(=O)N(C6CCC(=O)NC6=O)C7=O)CC5)ccc4c3)c2c1 (stereo not shown) [IA7858, N-[9-[4-[6-[2-[(6-cyano-4-quinolyl)amino]ethyl]naphthalene-2-carbonyl]piperazin-1-yl]-9-oxo-nonyl]-5-[[2-(2,6-dioxo-3-piperidyl)-1,3-dioxo-isoindolin-4-yl]amino]pentanamide]",21
6,CN(CCCNC(=O)CCOCCOCCOCCOCCNc1cccc2c1C(=O)N(C1CCC(=O)NC1=O)C2=O)C(=O)c1ccc(N2CCCN(c3ccnc4sc(C(N)=O)c(N)c34)CC2)cc1 (stereo not shown) [HP8553],74
7,"N#Cc1ccc2nccc(NCCc3ccc4cc(C(=O)N5CCN(C(=O)CCCCCCCCCCNC(=O)CCCNc6cccc7c6CN(C6CCC(=O)NC6=O)C7=O)CC5)ccc4c3)c2c1 (stereo not shown) [IA7869, N-[11-[4-[6-[2-[(6-cyano-4-quinolyl)amino]ethyl]naphthalene-2-carbonyl]piperazin-1-yl]-11-oxo-undecyl]-4-[[2-(2,6-dioxo-3-piperidyl)-1-oxo-isoindolin-4-yl]amino]butanamide]",43
8,"N#Cc1ccc2nccc(NCCc3ccc4cc(C(=O)N5CCN(C(=O)CCCCCCCCC(=O)NCCCCCNc6cccc7c6C(=O)N(C6CCC(=O)NC6=O)C7=O)CC5)ccc4c3)c2c1 (stereo not shown) [IA7840, 10-[4-[6-[2-[(6-cyano-4-quinolyl)amino]ethyl]naphthalene-2-carbonyl]piperazin-1-yl]-N-[5-[[2-(2,6-dioxo-3-piperidyl)-1,3-dioxo-isoindolin-4-yl]amino]pentyl]-10-oxo-decanamide]",55
9,"CN(CCCNC(=O)CCOCCOCCOCCNc1cccc2c1C(=O)N(C1CCC(=O)NC1=O)C2=O)C(=O)c1ccc(N2CCCN(c3ccnc4sc(C(N)=O)c(N)c34)CC2)cc1 (stereo not shown) [HP8575, 3-amino-4-[4-[4-[3-[3-[2-[2-[2-[[2-(2,6-dioxo-3-piperidyl)-1,3-dioxo-isoindolin-4-yl]amino]ethoxy]ethoxy]ethoxy]propanoylamino]propyl-methyl-carbamoyl]phenyl]-1,4-diazepan-1-yl]thieno[2,3-b]pyridine-2-carboxamide]",77
10,"N#Cc1ccc2nccc(NCCc3ccc4cc(C(=O)N5CCN(C(=O)CCCCCCCCCCNC(=O)CCCNc6ccc7c(c6)C(=O)N(C6CCC(=O)NC6=O)C7=O)CC5)ccc4c3)c2c1 (stereo not shown) [IA7868, N-[11-[4-[6-[2-[(6-cyano-4-quinolyl)amino]ethyl]naphthalene-2-carbonyl]piperazin-1-yl]-11-oxo-undecyl]-4-[[2-(2,6-dioxo-3-piperidyl)-1,3-dioxo-isoindolin-5-yl]amino]butanamide]",39

# Same assay, conditions: HEK-293 cells, Western blot
row,CDK8 degradation (in words),Structure (SMILES)
1,highly potent degrader,"CC(C)(C)C(=O)OCN1C(=O)CCC(N2C(=O)c3cccc(NCCCC(=O)NCCCCCCCCCCC(=O)N4CCN(C(=O)Cn5cc(-c6ccc(-c7cncc8ccccc78)cc6)cn5)CC4)c3C2=O)C1=O (stereo not shown) [IA7893, (3-(4-((4-((11-(4-(2-(4-(4-(isoquinolin-4-yl)phenyl)-1H-pyrazol-1-yl)acetyl)piperazin-1-yl)-11-oxoundecyl)amino)-4-oxobutyl)amino)-1,3-dioxoisoindolin-2-yl)-2,6-dioxopiperidin-1-yl)methyl pivalate]"
